The assay concerns human GR (MMTV-LUC reporter gene, A549 cells). Put plainly: Trans-Activation Modulation of Glucocorticoid Receptor Assay (GRAMMER), MMTV-LUC reporter in A549 cells. In kind it is cell-based. The conditions noted are these: for EC50: MMTV-LUC reporter, agonist mode, read-out: Transactivation A549 Cells GRAMMER IP (inflection point); for Emax / Transactivation A549 Cells GRAMMER Emax: Emax relative to the activity obtained with 300 nM dexamethasone; for Emax: read-out: Transactivation A549 Cells GRAMMER Emax. The source says:
Trans-Activation Modulation of Glucocorticoid Receptor Assay
This assay assesses the ability of test compounds to control transcription from the MMTV-LUC reporter gene in lung adenocarcinoma A549 cells or HeLa cells, a human […] cell line that naturally expresses the human GR. The assay measures induction of a modified MMTV LTR/promoter linked to the LUC reporter gene.
The routine transient assay consists of plating 7,000-25,000 cells/well of a white, clear-bottom 96-well plate. Alternatively, 384-well plates can be used at a cell concentration of 10,000 /well. The media that the cells are plated in is “exponential growth medium” which consists of phenol red-free RPMI1640 containing 10%FBS, 4 mM L-glutamine, 20 mM HEPES, 10 μg/mL human insulin, and 20 μg/mL gentamicin. Incubator conditions are 37° C. and 5% CO2. The transfection is done in batch mode. The cells are trypsinized and counted to the right cell number in the proper amount of fresh media. It is then gently mixed with the FuGene6/DNA mix and plated onto the 96 or 384-well plate, all the wells receive 100 μL or 40 μL, respectively, of medium +lipid/DNA complex then incubated 37° C. overnight. The transfection cocktail consists of serum-free OptiMEM, FuGene6 reagent and DNA. The manufacturer's (Roche Biochemical) protocol for cocktail setup is as follows: The lipid to DNA ratio is approximately 2.5:1 and the incubation time is 20 min at room temperature. Sixteen to 24 hours after transfection, the cells are treated with dexamethasone to a final concentration of 10 nM as well as the compound of interest, such that final DMSO (vehicle) concentration is equal to or less than 1%. Each plate also contains samples that are treated with 10 nM dexamethasone alone, which is used as the 100% activity control. The cells are exposed to the compounds for 24 hours. After 24 hours, the cells are lysed by a Promega cell culture lysis buffer for approximately 30 min and then the luciferase activity in the extracts is assayed in the 96-well format luminometer. In 384-well format, Steady-Glo (Promega) or Steady-Lite (PerkinElmer) can be used by adding an equal volume of reagent to the media present in each well. Activity induced by 10 nM dexamethasone alone is set at 100% activity. Antagonist activity is calculated by determining the decrease in dexamethasone-induced activity in response to compound treatment relative to samples that were treated with dexamethasone alone. Results are expressed as % inhibition of 10 nM dexamethasone activity or as fold of 10 nM dexamethasone activity. This transactivation assay can be performed in an agonist and antagonist mode to identify these different activities.
Activity of test compounds is calculated as the Emax relative to the activity obtained with 300 nM dexamethasone. Activity of test compounds is calculated as the Emax relative to the activity obtained with 300 nM DEX. The exemplified tissue selective glucocorticoid receptor modulators of the present invention display agonist activity in this assay of greater than 5% and less than 100%, and maximal transactivation activity less then maximal transrepression activity. […]

Like-named read-outs stand apart in the source and are kept apart here.

As a reminder, the Emax is the maximal effect, on the per cent scale that the assay sets. Regarding `COc1ccc(C(O)C[C@H]2CCC3=Cc4c(cnn4-c4cccnc4)C[C@@]32C)cc1` (stereo partly drawn) [Example 5, 1-(4-methoxyphenyl)-2-[(4αR,5R)-4α-methyl-1-(pyridin-3-yl)-1,4,4α,5,6,7-hexahydrocyclopenta[f]indazol-5-yl] ethanol], for the setting “Homo sapiens, A549, A549 cells”, the EC50 is 53.4 nM and the Emax came out at 90.7%.
For the molecule `COc1ccccc1C(O)C[C@H]1CCC2=Cc3c(cnn3-c3cccnc3)C[C@@]21C` (single isomer, unassigned) [Example 2a], under “A549 cells”, the EC50 amounted to 301 nM and the “Transactivation A549 Cells GRAMMER Emax” value is recorded as 68.5%.
Turning to `COc1cccc(C(O)C[C@H]2CCC3=Cc4c(cnn4-c4cccnc4)C[C@@]32C)c1` (single isomer, unassigned) [Example 4a], under “A549 cells”, the “Transactivation A549 Cells GRAMMER Emax” value is given as 47.7%. For the same molecule, the EC50 (Homo sapiens, A549, A549 cells) was 472 nM.
For the molecule `C[C@]12Cc3cnn(-c4cccnc4)c3C=C1CC[C@@H]2CC(O)c1ccccn1` (single isomer, unassigned) [Example 6a], under “Homo sapiens, A549, A549 cells”, the EC50 came out at 1170 nM and the Emax is 1.6%.
With `CC(O)(C[C@H]1CCC2=Cc3c(cnn3-c3cccnc3)C[C@@]21C)c1ccccc1` (single isomer, unassigned) [Example 7a], where the note is “A549 cells”, the EC50 stood at 74.3 nM and the “Transactivation A549 Cells GRAMMER Emax” value turned out to be 53.1%.
For `C[C@]12Cc3cnn(-c4cccnc4)c3C=C1CC[C@@H]2CC(O)c1ccccc1` (single isomer, unassigned) [Example 1a], in that order: 343 nM and 29.7%.
`COc1ccc(C(O)C[C@H]2CCC3=Cc4c(cnn4-c4cccnc4)C[C@@]32C)cn1` (stereo partly drawn) [Example 3, 1-(6-methoxypyridin-3-yl)-2-[(4αR,5R)-4α-methyl-1-(pyridin-3-yl)-1,4,4α,5,6,7-hexahydrocyclopenta[f]indazol-5-yl] ethanol]: for the setting “Homo sapiens, A549, A549 cells”, the EC50 amounted to 160 nM and the maximal effect (Emax) was 101%.
As for `COc1ccccc1C(O)C[C@H]1CCC2=Cc3c(cnn3-c3cccnc3)C[C@@]21C` (single isomer, unassigned) [Example 2b], under “A549 cells”, the EC50 came out at 812 nM and the “Transactivation A549 Cells GRAMMER Emax” value was 21.5%.
For `C[C@]12Cc3cnn(-c4cccnc4)c3C=C1CC[C@@H]2CC(O)c1ccccn1` (single isomer, unassigned) [Example 6b], in that order: 1430 nM and 2.2%.
The like results for `CC(O)(C[C@H]1CCC2=Cc3c(cnn3-c3cccnc3)C[C@@]21C)c1ccccc1` (single isomer, unassigned) [Example 7b] were, in that order, 316 nM and 20.0%.
The like results for `COc1cccc(C(O)C[C@H]2CCC3=Cc4c(cnn4-c4cccnc4)C[C@@]32C)c1` (single isomer, unassigned) [Example 4b] were, in that order, 797 nM and 15.3%.
Turning to `C[C@]12Cc3cnn(-c4cccnc4)c3C=C1CC[C@@H]2CC(O)c1ccccc1` (single isomer, unassigned) [Example 1b], where the note is “A549 cells”, the EC50 worked out at 811 nM and the “Transactivation A549 Cells GRAMMER Emax” value stood at 8.5%.
